Data set [1] can be described thus: physchem. The conditions noted are these: water.
For data set [2] the following is noted: gastric pH range of 1-2, aqueous solution; cited from earlier work.
The test system of data set [3] is brain dopamine. The conditions noted are these: rats, diet supplemented for 2 weeks; 70% depletion in nonsupplemented rodents; cited from earlier work.
Data set [4] relates to GP3A transgenic mice. The conditions noted are these: creatine supplementation; cited from earlier work.
Data set [5] relates to patients with various muscular dystrophies. The following applies: supplemented for 8 weeks; cited from earlier work.
Data set [6] can be described thus: Partition coefficient.

The structures appear in SMILES notation. Converted amounts (≈) assume the structure as drawn. Read-outs that look alike come from different tables or passages of the source.

By solubility (thermodynamic) is commonly meant solubility found after equilibrating the solid with the medium.

In turn, `CN(CC(=O)OCc1ccccc1)C(=N)N` [Creatine Benzyl Ester, creatine benzyl ester] gave a solubility (thermodynamic) in data set [1] of 89.3 mg/mL (≈ 403 mM).
Same read-out and setting: with `CCOC(=O)CN(C)C(=N)N` [Creatine Ethyl Ester, creatine ethyl ester] the figure was 206 mg/mL (≈ 1290 mM).
As to `CN(CC(=O)O)C(=N)N` [Creatine], in data set [2], the “creatinine/creatine ratio at equilibrium” value was “greater than or equal to 30”. Besides, in data set [3], the “reduction in brain dopamine” value is reported as 10%. Further, the increase of life-span entry in data set [4] is “up to 26 days”. Also, in data set [5], the “improvement in neuromuscular symptom score” value is 10% and the increase in strength is reported as 3%. In data set [6], the “partition coefficient” value was 0.015.
In data set [6] (studies in the laboratory), `CN(CC(=O)O)C(=N)N.O` [creatine monohydrate] had a partition coefficient of 0.015±0.007.

The record behind these values is patent US20030212136A1 (priority 2003, published 2003).
